Test [1] addresses T1, MAGL (Mus musculus, UniProt O35678).
T1 construct: Proteomes (mouse brain membrane fraction or cell lysates); from tissue; host or cells: mouse brain membrane fraction (or cell lysates)
T1 sequence (O35678 1-303): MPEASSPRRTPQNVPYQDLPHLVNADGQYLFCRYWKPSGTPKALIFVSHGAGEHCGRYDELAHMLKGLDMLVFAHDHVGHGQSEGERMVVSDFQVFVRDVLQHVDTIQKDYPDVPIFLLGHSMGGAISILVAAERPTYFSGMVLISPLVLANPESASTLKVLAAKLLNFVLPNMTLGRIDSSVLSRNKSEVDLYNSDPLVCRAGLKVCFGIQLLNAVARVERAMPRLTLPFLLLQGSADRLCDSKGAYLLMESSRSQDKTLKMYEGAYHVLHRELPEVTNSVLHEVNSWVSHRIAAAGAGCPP
Put plainly: Mouse brain proteomes from inhibitor treated mice (oral gavage, sacrificed 4 h after administration). It is filed as in vivo. Conditions: read-out: MAGL % inh. 5 mg/kg. An outline of the steps: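 Brains were collected 4 h after oral gavage dosing of wild-type C57Bl/6J mice, vehicle polyethylene glycol. Proteomes from these brains were then analyzed for MAGL and other serine hydrolase activity.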

In test [2] the target is T1, MAGL. Put plainly: In vitro competitive activity-based protein profiling (mouse), MAGL gel band. It is filed as biochemical. Conditions: for IC50: mouse; for inhibition at 1 µM: read-out: MAGL % inh. 1 μM. A digest of the protocol: (§1)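 Competitive ABPP: inhibitors at varying concentrations were given 30 min at 37 °C with mouse brain membranes or cell lysates (1.0 mg/mL total protein) before 30 min labelling by FP-Rh or HT-01 (stock 50 μM in DMSO). Residual hydrolase activity read as in-gel fluorescence of MAGL and FAAH bands.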

A further test deals with T2, FAAH (Mus musculus, UniProt O08914).
T2 construct: Proteomes (mouse brain membrane fraction or cell lysates); from tissue; host or cells: mouse brain membrane fraction (or cell lysates)
T2 sequence (O08914 1-579): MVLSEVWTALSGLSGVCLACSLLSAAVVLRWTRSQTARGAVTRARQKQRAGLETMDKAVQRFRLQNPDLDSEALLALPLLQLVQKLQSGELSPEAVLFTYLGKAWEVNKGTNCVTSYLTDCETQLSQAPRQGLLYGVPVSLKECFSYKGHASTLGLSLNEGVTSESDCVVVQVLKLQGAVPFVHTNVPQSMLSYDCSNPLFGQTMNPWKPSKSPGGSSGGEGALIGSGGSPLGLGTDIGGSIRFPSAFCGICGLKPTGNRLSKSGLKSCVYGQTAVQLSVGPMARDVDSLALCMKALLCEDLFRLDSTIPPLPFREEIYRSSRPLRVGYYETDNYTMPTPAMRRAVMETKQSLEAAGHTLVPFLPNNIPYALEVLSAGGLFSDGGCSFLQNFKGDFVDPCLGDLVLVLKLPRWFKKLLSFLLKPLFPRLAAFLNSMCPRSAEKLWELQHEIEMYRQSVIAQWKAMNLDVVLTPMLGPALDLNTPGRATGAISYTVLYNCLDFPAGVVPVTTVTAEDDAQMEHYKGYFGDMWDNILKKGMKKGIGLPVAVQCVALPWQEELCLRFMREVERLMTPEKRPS
Put plainly: In vitro competitive activity-based protein profiling (mouse), FAAH gel band. It is filed as biochemical. To be noted: for IC50: mouse; for inhibition at 1 µM: read-out: FAAH % inh. 1 μM. A digest of the protocol: as §1

Some results are limits rather than exact numbers.

`CC(=O)Nc1ccn(C(=O)N2CCN(Cc3ccc(Cl)cc3N3CC4COCC4C3)CC2)n1` (stereo not shown) [Example 60, N-(1-(4-(4-chloro-2-(dihydro-1H-furo[3,4-c]pyrrol-5(3H,6H,6aH)-yl)benzyl)piperazine-1-carbonyl)-1H-pyrazol-3-yl)acetamide]: on MAGL [1], the inhibition at 5 mg/kg was in the range of 0 to 25%. For the same molecule, at MAGL [2], the IC50 was at most 100 nM and the inhibition at 1 µM is at least 75%. In addition, on FAAH, the IC50 lay within 1000 to 10000 nM and the inhibition at 1 µM lay in the range of 0 to 25%.
As for `CC(=O)Nc1ccn(C(=O)N2CCC3(CCCN3Cc3cc(N4CCCC4)cc(C(F)(F)F)c3)CC2)n1` [Example 61, N-(1-(1-(3-(pyrrolidin-1-yl)-5-(trifluoromethyl)benzyl)-1,8-diazaspiro[4.5]decane-8-carbonyl)-1H-pyrazol-3-yl)acetamide], the inhibition at 5 mg/kg at MAGL [1] is 0 to 25%. For the same molecule, on MAGL [2], the IC50 is at most 100 nM and the inhibition at 1 µM is at least 75%. On FAAH, the 50% inhibitory concentration (IC50) lay in the range of 1000 to 10000 nM and the inhibition at 1 µM fell in the range of 0 to 25%.
As for `CC(=O)Nc1ccn(C(=O)N2CCC3(CCCN3Cc3cc(N4C5CCC4COC5)cc(C(F)(F)F)c3)CC2)n1` [Example 62, N-(1-(1-(3-(3-oxa-8-azabicyclo[3.2.1]octan-8-yl)-5-(trifluoromethyl)benzyl)-1,8-diazaspiro[4.5]decane-8-carbonyl)-1H-pyrazol-3-yl)acetamide], the inhibition at 5 mg/kg on MAGL [1] fell in the range of 0 to 25%. The half-maximal inhibitory concentration (IC50) on MAGL [2] was at most 100 nM; on FAAH, 1000 to 10000 nM. Further, the inhibition at 1 µM on MAGL [2] is at least 75%; at FAAH it was 0 to 25%.
Regarding `CC(=O)Nc1ccn(C(=O)N2CCC3(CCCN3Cc3cc(Cl)cc(N4CCCC4)c3)CC2)n1` [Example 63, N-(1-(1-(3-chloro-5-(pyrrolidin-1-yl)benzyl)-1,8-diazaspiro[4.5]decane-8-carbonyl)-1H-pyrazol-3-yl)acetamide], the inhibition at 5 mg/kg on MAGL [1] is 25 to 50%. Moreover, at MAGL [2], the 50% inhibitory concentration (IC50) was at most 100 nM and the inhibition at 1 µM was at least 75%. Also, on FAAH, the IC50 is 1000 to 10000 nM and the inhibition at 1 µM is 0 to 25%.
On the same counts, the results for `CC(=O)Nc1ccn(C(=O)N2CCC3(CCCN3Cc3cc(N4CC5CN(C(C)=O)CC5C4)cc(C(F)(F)F)c3)CC2)n1` (stereo not shown) [Example 69, N-(1-(1-(3-(5-acetylhexahydropyrrolo[3,4-c]pyrrol-2(1H)-yl)-5-(trifluoromethyl)benzyl)-1,8-diazaspiro[4.5]decane-8-carbonyl)-1H-pyrazol-3-yl)acetamide] are 0 to 25%, 100 to 1000 nM, at least 75%, 1000 to 10000 nM and 0 to 25%.
The corresponding values for `CC(=O)Nc1ccn(C(=O)N2CCN(Cc3ccc(C(F)(F)F)cc3OC3CCN(C4CC4)CC3)CC2)n1` [Example 71, N-(1-(4-(2-(1-cyclopropylpiperidin-4-yloxy)-4-(trifluoromethyl)benzyl)piperazine-1-carbonyl)-1H-pyrazol-3-yl)acetamide] are 25 to 50%, at most 100 nM, at least 75%, 1000 to 10000 nM and 0 to 25%.
As for `CC(=O)Nc1ccn(C(=O)N2CCN(Cc3cc(OC4CCN(C5CC5)CC4)cc(C(F)(F)F)c3)CC2)n1` [Example 72, N-(1-(4-(3-(1-cyclopropylpiperidin-4-yloxy)-5-(trifluoromethyl)benzyl)piperazine-1-carbonyl)-1H-pyrazol-3-yl)acetamide], on MAGL [1], the inhibition at 5 mg/kg lay within 0 to 25%. Further, on MAGL [2], the IC50 is at most 100 nM and the inhibition at 1 µM was at least 75%. Moreover, at FAAH, the IC50 lay within 1000 to 10000 nM and the inhibition at 1 µM lay in the range of 0 to 25%.
Turning to `CC(=O)Nc1ccn(C(=O)N2CCN(Cc3ccc(C(F)(F)F)cc3Oc3cncnc3)CC2)n1` [Example 73, N-(1-(4-(2-(pyrimidin-5-yloxy)-4-(trifluoromethyl)benzyl)piperazine-1-carbonyl)-1H-pyrazol-3-yl)acetamide], the inhibition at 5 mg/kg at MAGL [1] fell in the range of 0 to 25%. Further, on MAGL [2], the concentration for half-maximal inhibition (IC50) was at most 100 nM and the inhibition at 1 µM is at least 75%. On FAAH, the IC50 lay within 1000 to 10000 nM and the inhibition at 1 µM was in the range of 0 to 25%.
`CC(=O)Nc1ccn(C(=O)N2CCN(Cc3cc(Oc4cncnc4)cc(C(F)(F)F)c3)CC2)n1` [Example 74, N-(1-(4-(3-(pyrimidin-5-yloxy)-5-(trifluoromethyl)benzyl)piperazine-1-carbonyl)-1H-pyrazol-3-yl)acetamide]: the inhibition at 5 mg/kg at MAGL [1] lay in the range of 25 to 50%. The IC50 was at most 100 nM on MAGL [2] and 1000 to 10000 nM on FAAH. Further, the inhibition at 1 µM on MAGL [2] is at least 75%; on FAAH it was 0 to 25%.
On the same counts, the results for `CC(=O)Nc1ccn(C(=O)N2CCN(Cc3cc(OC4CCS(=O)(=O)CC4)cc(C(F)(F)F)c3)CC2)n1` [Example 78, N-(1-(4-(3-((1,1-dioxidotetrahydro-2H-thiopyran-4-yl)oxy)-5-(trifluoromethyl)benzyl)piperazine-1-carbonyl)-1H-pyrazol-3-yl)acetamide] are 0 to 25%, at most 100 nM, 1000 to 10000 nM, at least 75% and 0 to 25%.
Take `CC(=O)Nc1ccn(C(=O)N2CCN(Cc3ccc(C(F)(F)F)cc3OCC(=O)N3CCCC3)CC2)n1` [Example 79, N-(1-(4-(2-(2-oxo-2-(pyrrolidin-1-yl)ethoxy)-4-(trifluoromethyl)benzyl)piperazine-1-carbonyl)-1H-pyrazol-3-yl)acetamide]: the inhibition at 5 mg/kg on MAGL [1] fell in the range of 0 to 25%. Also, the IC50 at MAGL [2] is at most 100 nM; on FAAH it was 1000 to 10000 nM. For the same molecule, the results for the inhibition at 1 µM on MAGL [2] and at FAAH were at least 75% and 0 to 25%, respectively.
With `CC(=O)Nc1ccn(C(=O)N2CCN(Cc3cc(OCC(=O)N4CCCC4)cc(C(F)(F)F)c3)CC2)n1` [Example 80, N-(1-(4-(3-(2-oxo-2-(pyrrolidin-1-yl)ethoxy)-5-(trifluoromethyl)benzyl)piperazine-1-carbonyl)-1H-pyrazol-3-yl)acetamide], the inhibition at 5 mg/kg on MAGL [1] is 0 to 25%. On MAGL [2], the IC50 was at most 100 nM and the inhibition at 1 µM was at least 75%. On FAAH, the 50% inhibitory concentration (IC50) fell in the range of 1000 to 10000 nM and the inhibition at 1 µM was in the range of 0 to 25%.
For the molecule `CC(=O)Nc1ccn(C(=O)N2CCC3(CCCN3Cc3ccc(C(F)(F)F)cc3OC3CCN(C4CC4)CC3)CC2)n1` [Example 81, N-(1-(1-(2-(1-cyclopropylpiperidin-4-yloxy)-4-(trifluoromethyl)benzyl)-1,8-diazaspiro[4.5]decane-8-carbonyl)-1H-pyrazol-3-yl)acetamide], the inhibition at 5 mg/kg on MAGL [1] was in the range of 0 to 25%. In addition, the IC50 at MAGL [2] was at most 100 nM; on FAAH it was 1000 to 10000 nM. For the same molecule, the inhibition at 1 µM on MAGL [2] was at least 75%; on FAAH, 0 to 25%.
As to `CC(=O)Nc1ccn(C(=O)N2CCC3(CCCN3Cc3cc(OC4CCN(C5CC5)CC4)cc(C(F)(F)F)c3)CC2)n1` [Example 82, N-(1-(1-(3-(1-cyclopropylpiperidin-4-yloxy)-5-(trifluoromethyl)benzyl)-1,8-diazaspiro[4.5]decane-8-carbonyl)-1H-pyrazol-3-yl)acetamide], the inhibition at 5 mg/kg on MAGL [1] lay within 0 to 25%. Besides, the half-maximal inhibitory concentration (IC50) at MAGL [2] was at most 100 nM; at FAAH, 1000 to 10000 nM. Moreover, the inhibition at 1 µM at MAGL [2] was at least 75%; on FAAH it was 0 to 25%.

The values are drawn from patent US10519134B2, “Pyrazole compounds and methods of making and using same” (Lundbeck La Jolla Research Center, Inc., priority 2015, dated 2019).
